This is an account of results in PMC6842947, “Enhanced Antiviral Activity of Human Surfactant Protein D by Site-Specific Engineering of the Carbohydrate Recognition Domain” (Frontiers in Immunology, 2019).

Usually IC50 stands for the concentration at which inhibition is half-maximal. Read a high IC50 as a need for much substance.

What all share (experiment): Saccharide competition of SP-D binding to BSA-mannan coated plates
The target of one experiment is T1, iSP-D (Homo sapiens, UniProt P35247, D344N/D350N/E309K/INS346GSS/K307Q/V271E).
T1 construct: Full-length recombinant iSP-D was generated based upon the full-length hSP-D cDNA clone; made in house; host or cells: HEK293 (HEK293E, transient transfection)
T1 sequence (P35247 with tags, fused parts or gaps V271E/K307Q/E309K/D344N/INS346GSS/D350N): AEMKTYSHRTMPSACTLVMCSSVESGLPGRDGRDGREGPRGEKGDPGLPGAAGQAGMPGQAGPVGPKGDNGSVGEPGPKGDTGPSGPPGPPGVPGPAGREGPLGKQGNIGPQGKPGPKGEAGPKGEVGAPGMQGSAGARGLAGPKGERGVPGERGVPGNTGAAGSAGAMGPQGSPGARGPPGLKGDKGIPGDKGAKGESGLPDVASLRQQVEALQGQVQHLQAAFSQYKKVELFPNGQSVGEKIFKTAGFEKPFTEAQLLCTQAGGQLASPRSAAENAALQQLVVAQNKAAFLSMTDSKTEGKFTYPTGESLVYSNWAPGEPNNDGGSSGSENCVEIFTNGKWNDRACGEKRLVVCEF

A further experiment addresses T2, pSP-D (Sus scrofa, UniProt Q9N1X4).
T2 sequence (Q9N1X4 21-378): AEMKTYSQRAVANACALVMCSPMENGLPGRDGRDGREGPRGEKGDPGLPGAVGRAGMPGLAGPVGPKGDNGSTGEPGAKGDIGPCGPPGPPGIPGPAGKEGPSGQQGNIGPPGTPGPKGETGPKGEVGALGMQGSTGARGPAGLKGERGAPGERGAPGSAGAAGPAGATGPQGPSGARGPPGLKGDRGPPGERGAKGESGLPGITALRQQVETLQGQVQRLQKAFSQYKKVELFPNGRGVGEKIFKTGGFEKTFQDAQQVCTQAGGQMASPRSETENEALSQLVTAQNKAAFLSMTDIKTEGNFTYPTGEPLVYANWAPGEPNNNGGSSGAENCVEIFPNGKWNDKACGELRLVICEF
Also noted: species or system porcine.

The next experiment has as its target T3, hSP-D (Homo sapiens, UniProt P35247).
T3 construct: The full-length recombinant collectins pSP-D and hSP-D were constructed as published; made in house; host or cells: HEK293 (HEK293E, transient transfection)
T3 sequence (P35247 21-375): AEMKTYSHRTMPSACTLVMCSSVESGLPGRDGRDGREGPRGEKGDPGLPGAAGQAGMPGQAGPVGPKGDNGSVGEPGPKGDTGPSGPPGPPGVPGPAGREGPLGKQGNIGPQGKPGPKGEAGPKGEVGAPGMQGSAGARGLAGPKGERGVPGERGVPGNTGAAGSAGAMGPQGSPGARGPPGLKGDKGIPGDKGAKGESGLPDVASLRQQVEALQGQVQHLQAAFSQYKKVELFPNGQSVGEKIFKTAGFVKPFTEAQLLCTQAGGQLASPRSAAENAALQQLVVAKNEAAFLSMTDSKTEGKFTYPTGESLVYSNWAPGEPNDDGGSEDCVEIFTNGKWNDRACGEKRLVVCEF

On to `O[C@H]1[C@H](O)[C@@H](O)[C@H](O)[C@@H](O)[C@H]1O` [Myo-Inositol, myo-inositol], for which the “IC50-value with iSP-D as compared to hSP-D” value on iSP-D (ratio of IC50 for inhibition of binding to BSA-mannan) was “three times higher”.

In the case of `O=C[C@H](O)[C@@H](O)[C@@H](O)[C@H](O)CO` [D-Galactose, D-galactose], the IC50 at iSP-D came out at 13.6 mM; on pSP-D, 6.5 mM; on hSP-D, 13.5 mM.

Consider `O=C(CO)[C@@H](O)[C@H](O)[C@H](O)CO` [Fructose, fructose], for which the IC50 at iSP-D stood at 4.8 mM; at pSP-D it was 2.8 mM; on hSP-D, 3.1 mM.

Turning to `CC(=O)N[C@@H]1C(O)O[C@H](CO)[C@@H](O)[C@@H]1O` (stereo partly shown) [ManNAc, N-acetylmannosamine], the results for the IC50 on iSP-D, on pSP-D and on hSP-D were 3.1 mM, 8 mM and 2.2 mM, respectively.

Regarding `OC[C@H]1OC(O)[C@H](O)[C@@H](O)[C@@H]1O` (stereo partly drawn) [D-Glucose, D-glucose], the concentration for half-maximal inhibition (IC50) at iSP-D was 7.8 mM; at pSP-D, 2.8 mM; at hSP-D, 4.6 mM.
